# Experimental data: patent US7423017B2, “Method for treating cartilage disorders” (Genentech, Inc., priority 1997, dated 2008)
# Entries after “also recorded” stand apart in the source; their conditions may differ. Positions of bridges follow the written chain, without caps; N, C: chain ends. Residues, ends and D or L forms follow the SMILES beside them. No end group written: not given here.
# Assays:
# IGFBP-1 [1] = test: competitive phage ELISA of IGF-1 mutants, IGFBP-1; assay type: binding, human; details: relative IC50 IGFBP-1/relative IC50 IGFBP-3
# In short: (§1)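 Alanine-scan IGF-1 mutants on phage competed with soluble IGFBP-1 or IGFBP-3 (threefold dilutions over six logs, from 5 μM and 500 nM respectively) for binding to plates coated with 1 μg/ml of the same protein in PBS pH 7.2. Incubation was 1 h at room temperature in 0.5% Tween 20/PBS. Bound phage was detected by anti-phage/HRP ELISA; IC50 is the mean±SD of at least two clones.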
# IGFBP-3 [2] = molecular target: T1, IGFBP-3 (Homo sapiens, UniProt P17936); test: competitive phage ELISA of IGF-1 mutants, IGFBP-3; assay type: binding; details: phage display, soluble IGFBP-3 competitor
# T1 construct: made in house
# T1 sequence (P17936 28-291): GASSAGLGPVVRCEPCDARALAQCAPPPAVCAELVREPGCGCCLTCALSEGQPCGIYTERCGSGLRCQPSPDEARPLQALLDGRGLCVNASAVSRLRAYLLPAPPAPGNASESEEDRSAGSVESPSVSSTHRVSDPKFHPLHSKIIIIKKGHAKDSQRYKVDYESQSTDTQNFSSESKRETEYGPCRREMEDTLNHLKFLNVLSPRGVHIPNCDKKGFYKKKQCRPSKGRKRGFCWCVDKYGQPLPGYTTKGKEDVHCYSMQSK
# In short: as §1
# IGFBP-1 [3] = molecular target: T2, IGFBP-1 (Homo sapiens, UniProt P08833); details: cited from earlier work
# T2 sequence (P08833 26-259): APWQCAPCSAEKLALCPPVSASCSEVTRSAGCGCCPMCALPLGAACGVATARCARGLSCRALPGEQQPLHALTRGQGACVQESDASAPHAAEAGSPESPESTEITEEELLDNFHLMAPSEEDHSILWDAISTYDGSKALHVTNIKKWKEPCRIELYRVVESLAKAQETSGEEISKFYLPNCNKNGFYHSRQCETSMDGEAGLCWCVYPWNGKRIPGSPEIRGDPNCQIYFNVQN
# IGFBP-1 [4] = molecular target: T2, IGFBP-1; test: competitive phage ELISA of IGF-1 mutants, IGFBP-1; assay type: binding; parameters: made in house; host or cells: CHO cells; details: phage display, soluble IGFBP-1 competitor
# In short: as §1
# IGFBP-1 [5] = molecular target: T2, IGFBP-1; test: biotinylated-IGFBP-1 ELISA plate assay of IGF-I:IGFBP-1 inhibition; assay type: binding; parameters: made in house; host or cells: CHO cells
# Source text: A second series of peptides made use of non-natural amino acids to probe whether other structural features such as an added methyl group at the alpha carbon, or an isomer (D-alanine) could affect peptide binding to IGFBP-1.
# BP1-16 (SEQ ID NO:35), a 13-residue version of BP1-01 (lacking the C-terminal Gly), had similar affinity to that of BP1-01. Substitutions at the N-terminus or C-terminus yielded affinity improvements.
# IGFBP-3 [6] = molecular target: T1, IGFBP-3; test: binding curves of phage displaying IGF-1 variants on immobilized IGFBP-1 or IGFBP-3
# Source text: Phage particles displaying IGF-1 variants in which the aspartate residue at position 12 was mutated to lysine (D12K) or arginine (D12R) were constructed as described in Dubaquié and Lowman, supra. Furthermore, these protein variants were expressed in E. coli and purified as described in Dubaquié and Lowman, supra.
# The wild-type IGF-1 phage particles bound to IGFBP-1 or IGFBP-3 generated similar detection signal intensities.
# [7] = system: porcine articular cartilage explants; test: porcine articular cartilage explants: matrix breakdown; assay type: cell-based, pig; details: 10 nM; for IL-1α-induced matrix breakdown: IL-1α 1 ng/ml
# Procedure: (§2) The metacarpophalangeal joint of a six-month old pig was cultured as described above for bovine articular cartilage in Example 8. This explant was cultured in media alone or in media with D12K, D12R, or wild-type IGF-1 (at 10 nM) alone or in the presence of IL-1α at 1 ng/ml, as described above. Human explants were from patients undergoing joint replacement surgery. Articular cartilage was harvested, aliquoted (40-45 mg/tube) and cultured as above. […] Fresh media was added on days 0, 1, 2, and 3. Matrix breakdown was determined by measuring the amount of proteoglycans in the media using the DMMB assay as set forth above. Matrix (proteoglycan) synthesis was determined by measuring ^35S-sulfate uptake as set forth above.
# [8] = system: porcine articular cartilage explants; test: porcine articular cartilage explants: matrix synthesis; assay type: cell-based, pig; details: 10 nM; for IL-1α-induced inhibition of proteoglycan synthesis: IL-1α 1 ng/ml
# Procedure: as §2
# [9] = system: human articular cartilage explants; test: human articular cartilage explants from diseased joints: matrix synthesis (35S-sulfate uptake); assay type: cell-based; details: for matrix synthesis in diseased human articular cartilage: 40 ng/ml; for matrix synthesis, IGF-1 in combination with peptide: IGF-1 40 ng/ml, peptide 0.1 mg/ml
# Procedure: as §2
# (§3) Human articular cartilage explants were cultured in media or treated with IGF-1 by itself or in combination with either BP3-40 or BP3-15 at 0.1 mg/ml as set forth above. Matrix breakdown was determined by measuring the release of proteoglycans into media as described above. Matrix synthesis was determined by counting the amount of ^35S-sulfate incorporated into the cartilage tissue as described above.
# The same Material and Methods (for human tissue) were used as described above, using articular cartilage explants from human joints removed from patients undergoing joint replacement. These explants were cultured with IGF-1 alone at 40 ng/ml, or IGF-1 with BP1-17, BP3-15, or BP1-16 (0.1 mg/ml), or IGF-1 with buffer (HEPES).
# IGFBP-3 [10] = molecular target: T1, IGFBP-3; test: BIACORE competition assay: IGFBP-3 binding to immobilized IGF-1; details: IGF-1 inhibition; wt = BP3-01-ox
# Procedure: IGF-1 was immobilized on a dextran chip for inhibition assays using a BIACORE™ 2000 surface-plasmon-resonance device (BIAcore, Inc., Piscataway, N.J.) to measure free binding protein. IGF-1 was biotinylated as described above, and injected over a chip to which streptavidin had been coupled (BIAcore, Inc.) to give 400 to 800 RU (response units) of immobilized IGF-1. […] Serial dilutions of peptide were mixed with a constant concentration (40 nM) of IGFBP-3. After incubation for >1 hour at room temperature, an aliquot of 20 μL was injected at a flow rate of 20 μL/min over the IGF-1 chip. Following the injection, a response reading was taken to measure the relative amount of IGFBP-3 bound to the IGF-1.
# IGFBP-3 [11] = test: displacement of 125I-IGF-1 from IGFBPs in human serum, size-exclusion chromatography; assay type: binding; details: peptide at 0.2 mM
# Procedure: This Example tests an IGFBP-3-specific peptide, BP3-15, for its ability to block the binding of ^125I-IGF-1 in human serum. Human serum was incubated with ^125I-IGF-1 ± the peptide and the amount of tracer bound to IGFBPs via size-exclusion chromatography was measured.
# [12] = system: human articular cartilage explants; test: human articular cartilage explants: matrix breakdown (proteoglycan release); assay type: cell-based; details: peptide 0.1 mg/ml
# Procedure: as §2, §3
# IGFBP-1 [13] = test: BIACORE kinetics: IGFBP-1 binding to immobilized IGF-1 variants; parameters: species or system human; details: from relative KD values
# Procedure: (§4) The binding affinities of the IGF variants for IGFBP-1 and IGFBP-3 were determined using a BIACORE™-2000 real time kinetic interaction analysis system (Biacore, Inc., Piscataway, N.J.) to measure association (ka) and dissociation (kd) rates. Carboxymethylated dextran biosensor chips (CM5, BIAcore Inc.) were activated with EDC (N-ethyl-N′-(3-dimethylaminopropyl)-carbodiimide hydrochloride) and NHS(N-hydroxysuccinimide) according to the supplier's instructions. For immobilization, IGF mutants in 20 mM sodium acetate, pH 4.8, were injected onto the biosensor chip at a concentration of 50 μg/ml to yield approximately 450-600 RU's (resonance-responce units) of covalently-coupled protein. Unreacted groups were blocked with an injection of 1 M ethanolamine. Kinetic measurements were carried out by injecting two-fold serial dilutions (starting at 1 μM) of either IGFBP-1 or IGFBP-3 in running buffer (PBS, 0.05% TWEEN 20™, 0.1% ovalbumin, 0.1% sodium azide) at 25 °C using a flow rate of 20 μl/min. Association rates (ka) and dissociation rates (kd) were calculated separately using a 1:1 Langmuir™ association model in the BIACORE™ evaluation software v. 3.0. The equilibrium dissociation constant (KD) was calculated as kd/ka.
# For measurements of IGFBP-1 binding to IGF-1, kinetics experiments were conducted using a single-cysteine IGF-1 variant, Y31C, that was immobilized onto the sensor chip surface via a disulfide linkage (BIACORE™ System Manual Supplement, 5a-1, Pharmacia (1991)).
# IGFBP-3 [14] = molecular target: T1, IGFBP-3; test: BIACORE kinetics: IGFBP-3 binding to immobilized IGF-1 variants; details: 25 C
# Procedure: as §4
# type I IGF receptor = molecular target: T3, type I IGF receptor (Homo sapiens, UniProt P08069); test: KIRA assay of IGF type I receptor activation; assay type: cell-based; details: about 13 nM or […] variant
# T3 construct: monitors the extent of cytoplasmic IGF receptor phosphorylation upon extracellular stimulation by ligand; endogenous in cells; MCF-7 by my knowledge of the cited method
# T3 sequence (P08069 31-736 limits assumed): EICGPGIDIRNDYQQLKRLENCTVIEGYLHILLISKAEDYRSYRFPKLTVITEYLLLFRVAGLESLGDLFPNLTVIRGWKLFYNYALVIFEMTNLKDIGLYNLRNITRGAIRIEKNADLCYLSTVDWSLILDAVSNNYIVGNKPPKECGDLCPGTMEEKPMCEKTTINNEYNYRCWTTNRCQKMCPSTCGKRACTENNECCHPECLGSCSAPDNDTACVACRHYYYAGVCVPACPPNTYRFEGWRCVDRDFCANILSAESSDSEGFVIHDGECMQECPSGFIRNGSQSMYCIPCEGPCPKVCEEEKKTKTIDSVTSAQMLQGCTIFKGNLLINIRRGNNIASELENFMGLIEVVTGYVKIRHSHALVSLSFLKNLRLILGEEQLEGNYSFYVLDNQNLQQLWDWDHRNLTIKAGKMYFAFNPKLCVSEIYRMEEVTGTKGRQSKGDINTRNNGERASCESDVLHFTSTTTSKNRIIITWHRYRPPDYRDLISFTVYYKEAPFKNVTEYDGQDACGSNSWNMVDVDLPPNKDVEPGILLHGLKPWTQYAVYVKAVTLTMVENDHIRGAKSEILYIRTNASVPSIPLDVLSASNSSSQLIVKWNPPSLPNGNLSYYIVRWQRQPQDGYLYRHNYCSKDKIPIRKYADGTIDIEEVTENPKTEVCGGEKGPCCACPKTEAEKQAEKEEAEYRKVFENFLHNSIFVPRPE
# Source text: The Kinase Receptor Activation Assay (KIRA) specifically and quantitatively monitors the extent of cytoplasmic IGF receptor phosphorylation upon extracellular stimulation by ligand (Sadick et al., J. Pharm. Biomed. Analysis, 19 (6): 883-891 (1999)).
# IGFBP-1 [15] = molecular target: T2, IGFBP-1; test: BIACORE kinetics: IGFBP-1 binding to immobilized IGF-1 variants; parameters: made in house; host or cells: CHO cells; details: 25 C
# IGFBP-1 [16] = molecular target: T2, IGFBP-1; test: KIRA cell-based assay of IGF-like activity displaced by peptides from IGF-1/IGFBP-1; details: 2 nM IGF-1, […] IGFBP-1
# Procedure: A cell-based (KIRA) assay was previously described for measuring the amount of IGF-like activity displaced by peptides from mixtures of IGF-1 and binding proteins (Lowman et al., supra, 1998; WO 98/45427, supra). The KIRA assay was used to compare in vitro bioactivity of BP1-16, BP1-02, BP1-25, and BP1-40. […] IGF-1 and peptide were mixed and added to cells expressing IGF receptor for 30 min, then IGFBP-1 was added for an additional 1 h.
compound,measurement,setting,value
R50A: IGF-1 single alanine mutant,relative specificity,IGFBP-1 [1],2.3
same,IC50,IGFBP-3 [2],0.64 ± 0.18 nM
same,decrease in affinity for IGFBP-1,IGFBP-1 [3],3 fold
same,IC50,IGFBP-1 [4],16.2 ± 1.8 nM
CRAGPLQHLCEKYF [BP1-24],Fold potency reduction IC50 (mut) / IC50 (BP1-16),IGFBP-1 [5],< 10
"D12R: IGF-1 variant, aspartate at position 12 mutated to arginine","phage binding signal intensity, IGFBP-3 versus IGFBP-1",IGFBP-3 [6],displayed lower signal intensities when binding to IGFBP-3 compared to IGFBP-1
same,cartilage matrix breakdown,[7],inhibited cartilage matrix breakdown
same,IL-1α-induced matrix breakdown,[7],inhibited the catabolic effects
same,matrix synthesis,[8],increased matrix synthesis
same,IL-1α-induced inhibition of proteoglycan synthesis,[8],prevented IL-1α-induced inhibition of proteoglycan synthesis
same,matrix synthesis in diseased human articular cartilage,[9],stimulated matrix synthesis in diseased human articular cartilage
CC(C)C[C@@H]1NC(=O)[C@H](Cc2ccc(O)cc2)NC(=O)[C@H](Cc2c[nH]c3ccccc23)NC(=O)[C@H](CCC(=O)O)NC(=O)[C@H](C)NC(=O)[C@H](C(C)C)NC(=O)[C@@H]2CCCN2C(=O)[C@H](Cc2c[nH]c3ccccc23)NC(=O)[C@@H](NC(=O)[C@@H](NC(=O)[C@H](CCC(=O)O)NC(=O)[C@H](CCC(=O)O)NC(=O)[C@@H](N)CO)C(C)C)CSSC[C@@H](C(=O)N[C@@H](CC(N)=O)C(=O)O)NC1=O [BP3-15] (H-SEEVCWPVAEWYLCN-OH; disulfide 5-14; N-terminus and C-terminus assumed),IC50 (mut) / IC50 (wt),IGFBP-3 [10],0.36
same,125I-IGF-1 binding to the 44-KD IGFBPs,IGFBP-3 [11],did not decrease
same,decrease in 125I-IGF-1 associated with the 150-KD IGF/IGFBP-3/ALS complex,IGFBP-3 [11],~42%
same,increase in the amount of free 125I-IGF-1,IGFBP-3 [11],59%
same,"matrix synthesis, IGF-1 in combination with peptide",[9],to stimulate matrix synthesis; also recorded: enhance anabolism
same,"matrix breakdown, IGF-1 in combination with peptide",[12],appeared to enhance the ability of IGF-1 to decrease matrix breakdown
F16A: IGF-1 single alanine mutant,relative specificity,IGFBP-1 [1],4.0
same,IC50,IGFBP-3 [2],1.32 ± 0.25 nM
same,Specificity Relative BP-1 / Relative BP-3,IGFBP-1 [13],3.6
same,Binding to IGFBP-3 ka,IGFBP-3 [14],1.1 ± 0.4 ×10^5 M^−1s^−1
same,"IGF type I receptor activation, single-concentration KIRA",type I IGF receptor,retain biological activity
same,IC50,IGFBP-1 [4],57.8 ± 20.1 nM
same,Binding to IGFBP-1 ka,IGFBP-1 [15],1.9 ± 0.6 ×10^4 M^−1s^−1
CC(=O)N[C@@H](CO)C(=O)N[C@@H](CCC(=O)O)C(=O)N[C@@H](CCC(=O)O)C(=O)N[C@H](C(=O)N[C@H]1CSSC[C@@H](C(=O)N[C@@H](CC(N)=O)C(N)=O)NC(=O)[C@H](CC(C)C)NC(=O)[C@H](Cc2ccc(O)cc2)NC(=O)[C@H](Cc2c[nH]c3ccccc23)NC(=O)[C@H](CCC(=O)O)NC(=O)[C@H](C)NC(=O)[C@H](C(C)C)NC(=O)[C@@H]2CCCN2C(=O)[C@H](Cc2c[nH]c3ccccc23)NC1=O)C(C)C [BP3-40] (Ac-SEEVCWPVAEWYLCN-NH2; disulfide 5-14),"matrix synthesis, IGF-1 in combination with peptide",[9],to stimulate matrix synthesis
same,"matrix breakdown, IGF-1 in combination with peptide",[12],appeared to enhance the ability of IGF-1 to decrease matrix breakdown
CRAGPLQWLCEKYF-nh2 (CRAGPLQWLCEKYF-NH2; disulfide 1-10 (inferred)) [BP1-16],"matrix synthesis, IGF-1 in combination with peptide",[9],enhance anabolism
same,EC20 (concentration at which 20% of maximal IGF-1 activity is observed),IGFBP-1 [16],150 to 200 nM
same,Fold potency reduction IC50 (mut) / IC50 (BP1-16),IGFBP-1 [5],-1-
"D12K: IGF-1 variant, aspartate at position 12 mutated to lysine","phage binding signal intensity, IGFBP-3 versus IGFBP-1",IGFBP-3 [6],displayed lower signal intensities when binding to IGFBP-3 compared to IGFBP-1
same,cartilage matrix breakdown,[7],inhibited cartilage matrix breakdown
same,IL-1α-induced matrix breakdown,[7],inhibited the catabolic effects
same,matrix synthesis,[8],increased matrix synthesis
same,IL-1α-induced inhibition of proteoglycan synthesis,[8],prevented IL-1α-induced inhibition of proteoglycan synthesis
same,matrix synthesis in diseased human articular cartilage,[9],stimulated matrix synthesis in diseased human articular cartilage
